# Measurements reported in the supplement of paper PMC10307832.
# Key:
# Experiment in all cases: relative viability (nuclei count vs DMSO), 5 days (fraction); higher = more cells survive
# NCI-H322M = test system: NCI-H322M
# In short: (§1)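 Lung cancer cell lines in 1536-well plates got either a single drug or a fixed anchor-drug dose together with five library-drug doses (not always all listed) in √10 steps, by pin tool, on the day after seeding. Nuclei were counted after 5 days, and relative viability is the treated-to-vehicle ratio of nuclei counts. Values are medians of duplicate plates.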
# NCI-H2170 = test system: NCI-H2170
# In short: as §1
# NCI-H23 = test system: NCI-H23
# In short: as §1
# HCC-44 = test system: HCC-44
# In short: as §1
# NCI-H2347 = test system: NCI-H2347
# In short: as §1
# NCI-H838 = test system: NCI-H838
# In short: as §1
# NCI-H1666 = test system: NCI-H1666
# In short: as §1
# NCI-H1395 = test system: NCI-H1395
# In short: as §1
# 201T = test system: 201T
# In short: as §1
# NCI-H2085 = test system: NCI-H2085
# In short: as §1
# NCI-H661 = test system: NCI-H661
# In short: as §1
# HOP-62 = test system: HOP-62
# In short: as §1
# NCI-H1651 = test system: NCI-H1651
# In short: as §1
# NCI-H520 = test system: NCI-H520
# In short: as §1
# NCI-H1355 = test system: NCI-H1355
# In short: as §1
# NCI-H2228 = test system: NCI-H2228
# In short: as §1
# NCI-H647 = test system: NCI-H647
# In short: as §1
# CAL-12T = test system: CAL-12T
# In short: as §1
# LCLC-103H = test system: LCLC-103H
# In short: as §1
# NCI-H1993 = test system: NCI-H1993
# In short: as §1
# COR-L23 = test system: COR-L23
# In short: as §1
# LC-2-ad = test system: LC-2-ad
# In short: as §1
structure (smiles),measurement,setting,value
O=c1[nH]c2ccccc2n1C1CCN(CCCC(c2ccc(F)cc2)c2ccc(F)cc2)CC1 [Pimozide] + Nc1nc2[nH]cc(CCc3ccc(C(=O)N[C@@H](CCC(=O)O)C(=O)O)cc3)c2c(=O)[nH]1 [Pemetrexed] (partner 0.2 µM),relative viability,NCI-H322M; first compound 0.08 µM,0.571
same,relative viability,NCI-H322M; first compound 0.253 µM,0.668
same,relative viability,NCI-H322M; first compound 0.8 µM,0.622
same,relative viability,NCI-H322M; first compound 2.53 µM,0.604
same,relative viability,NCI-H322M; first compound 8 µM,0.609
same,relative viability,NCI-H2170; first compound 0.08 µM,0.273
same,relative viability,NCI-H2170; first compound 0.253 µM,0.242
same,relative viability,NCI-H2170; first compound 0.8 µM,0.263
same,relative viability,NCI-H2170; first compound 2.53 µM,0.258
same,relative viability,NCI-H2170; first compound 8 µM,0.258
same,relative viability,NCI-H23; first compound 0.08 µM,0.64
same,relative viability,NCI-H23; first compound 0.253 µM,0.716
same,relative viability,NCI-H23; first compound 0.8 µM,0.609
same,relative viability,NCI-H23; first compound 2.53 µM,0.59
same,relative viability,NCI-H23; first compound 8 µM,0.591
same,relative viability,HCC-44; first compound 0.08 µM,0.67
same,relative viability,HCC-44; first compound 0.253 µM,0.666
same,relative viability,HCC-44; first compound 0.8 µM,0.577
same,relative viability,HCC-44; first compound 2.53 µM,0.618
same,relative viability,HCC-44; first compound 8 µM,0.577
same,relative viability,NCI-H2347; first compound 0.08 µM,0.406
same,relative viability,NCI-H2347; first compound 0.253 µM,0.449
same,relative viability,NCI-H2347; first compound 0.8 µM,0.42
same,relative viability,NCI-H2347; first compound 2.53 µM,0.368
same,relative viability,NCI-H2347; first compound 8 µM,0.475
same,relative viability,NCI-H838; first compound 0.08 µM,0.251
same,relative viability,NCI-H838; first compound 0.253 µM,0.242
same,relative viability,NCI-H838; first compound 0.8 µM,0.238
same,relative viability,NCI-H838; first compound 2.53 µM,0.236
same,relative viability,NCI-H838; first compound 8 µM,0.221
same,relative viability,NCI-H1666; first compound 0.08 µM,0.808
same,relative viability,NCI-H1666; first compound 0.253 µM,0.809
same,relative viability,NCI-H1666; first compound 0.8 µM,0.834
same,relative viability,NCI-H1666; first compound 2.53 µM,0.891
same,relative viability,NCI-H1666; first compound 8 µM,0.782
same,relative viability,NCI-H1395; first compound 0.08 µM,0.887
same,relative viability,NCI-H1395; first compound 0.253 µM,0.825
same,relative viability,NCI-H1395; first compound 0.8 µM,0.822
same,relative viability,NCI-H1395; first compound 2.53 µM,0.823
same,relative viability,NCI-H1395; first compound 8 µM,0.831
same,relative viability,201T; first compound 0.08 µM,0.31
same,relative viability,201T; first compound 0.253 µM,0.334
same,relative viability,201T; first compound 0.8 µM,0.332
same,relative viability,201T; first compound 2.53 µM,0.312
same,relative viability,201T; first compound 8 µM,0.276
same,relative viability,NCI-H2085; first compound 0.08 µM,0.812
same,relative viability,NCI-H2085; first compound 0.253 µM,1.01
same,relative viability,NCI-H2085; first compound 0.8 µM,0.745
same,relative viability,NCI-H2085; first compound 2.53 µM,0.938
same,relative viability,NCI-H2085; first compound 8 µM,0.735
same,relative viability,NCI-H661; first compound 0.08 µM,0.914
same,relative viability,NCI-H661; first compound 0.253 µM,0.898
same,relative viability,NCI-H661; first compound 0.8 µM,0.844
same,relative viability,NCI-H661; first compound 2.53 µM,0.877
same,relative viability,NCI-H661; first compound 8 µM,0.797
same,relative viability,HOP-62; first compound 0.08 µM,0.275
same,relative viability,HOP-62; first compound 0.253 µM,0.362
same,relative viability,HOP-62; first compound 2.53 µM,0.283
same,relative viability,HOP-62; first compound 8 µM,0.284
same,relative viability,NCI-H1651; first compound 0.08 µM,0.603
same,relative viability,NCI-H1651; first compound 0.253 µM,0.487
same,relative viability,NCI-H1651; first compound 0.8 µM,0.697
same,relative viability,NCI-H1651; first compound 2.53 µM,0.562
same,relative viability,NCI-H1651; first compound 8 µM,0.566
same,relative viability,NCI-H520; first compound 0.08 µM,0.651
same,relative viability,NCI-H520; first compound 0.253 µM,0.723
same,relative viability,NCI-H520; first compound 0.8 µM,0.739
same,relative viability,NCI-H520; first compound 2.53 µM,0.734
same,relative viability,NCI-H520; first compound 8 µM,0.575
same,relative viability,NCI-H1355; first compound 0.08 µM,1.07
same,relative viability,NCI-H1355; first compound 0.253 µM,1.01
same,relative viability,NCI-H1355; first compound 0.8 µM,0.878
same,relative viability,NCI-H1355; first compound 2.53 µM,1.03
same,relative viability,NCI-H1355; first compound 8 µM,1.01
same,relative viability,NCI-H2228; first compound 0.08 µM,0.329
same,relative viability,NCI-H2228; first compound 0.253 µM,0.369
same,relative viability,NCI-H2228; first compound 0.8 µM,0.306
same,relative viability,NCI-H2228; first compound 2.53 µM,0.334
same,relative viability,NCI-H2228; first compound 8 µM,0.229
same,relative viability,NCI-H647; first compound 0.08 µM,0.186
same,relative viability,NCI-H647; first compound 0.253 µM,0.188
same,relative viability,NCI-H647; first compound 0.8 µM,0.175
same,relative viability,NCI-H647; first compound 2.53 µM,0.2
same,relative viability,NCI-H647; first compound 8 µM,0.128
same,relative viability,CAL-12T; first compound 0.08 µM,1.22
same,relative viability,CAL-12T; first compound 0.253 µM,1.22
same,relative viability,CAL-12T; first compound 0.8 µM,1.14
same,relative viability,CAL-12T; first compound 2.53 µM,1.22
same,relative viability,CAL-12T; first compound 8 µM,1.11
same,relative viability,LCLC-103H; first compound 0.08 µM,0.435
same,relative viability,LCLC-103H; first compound 0.253 µM,0.425
same,relative viability,LCLC-103H; first compound 0.8 µM,0.471
same,relative viability,LCLC-103H; first compound 2.53 µM,0.385
same,relative viability,LCLC-103H; first compound 8 µM,0.468
same,relative viability,NCI-H1993; first compound 0.08 µM,0.487
same,relative viability,NCI-H1993; first compound 0.253 µM,0.548
same,relative viability,NCI-H1993; first compound 0.8 µM,0.512
same,relative viability,NCI-H1993; first compound 2.53 µM,0.482
same,relative viability,NCI-H1993; first compound 8 µM,0.501
same,relative viability,COR-L23; first compound 0.08 µM,0.2
same,relative viability,COR-L23; first compound 0.253 µM,0.192
same,relative viability,COR-L23; first compound 0.8 µM,0.19
same,relative viability,COR-L23; first compound 2.53 µM,0.192
same,relative viability,COR-L23; first compound 8 µM,0.192
same,relative viability,LC-2-ad; first compound 0.08 µM,0.275
same,relative viability,LC-2-ad; first compound 0.253 µM,0.288
same,relative viability,LC-2-ad; first compound 0.8 µM,0.259
same,relative viability,LC-2-ad; first compound 2.53 µM,0.265
same,relative viability,LC-2-ad; first compound 8 µM,0.254
